This note sets out measurements from patent US20250216399A1, “NONSPECIFIC REACTION INHIBITOR” (PHC CORPORATION, priority 2022, published 2025).

Ends that are not written are not given here. PEG 20 kDa = 20 kDa PEG attached through the N-terminal amino group; l = locked nucleic acid (LNA); {C6NH2} = Amino C6 linker; d = 2'-deoxy (DNA); r = 2'-OH (RNA); f = 2'-fluoro

Data set [1] relates to human IgG (polyclonal immunoglobulin G) (Homo sapiens). In words: BLI. As to conditions: upper case RNA, lower case DNA; 2'-F at U6, U9, C20, U21; LNA at A18; 5' amino C6 linker conjugated to 20 kDa PEG (Jenkem ME); response of IgG on immobilised anti-human IgG antibody with 0.3 mg/mL PEG-aptamer (7.9093 nm without inhibitor); indirect, inhibition of IgG-antibody reaction ….

In data set [2] the test system is human IgA. In words: Reaction inhibitory effect on human IgA, Bio-Layer Interferometry (Octet R2), anti-human IgA antibody and human IgA. Format: binding. The settings on record: for Response: human IgA, not added 2.1381. The procedure:
(§1) As a model system to confirm the non-specific inhibitory effect, an anti-human IgG antibody and human IgG, or an anti-human IgA antibody and human IgA were used, and the reaction inhibitory effect on the IgG-binding peptide or the IgA-binding peptide with smaller molecular weights than antibody fragments, with or without PEG modification, was confirmed.
(§2) The measurements were performed using Bio-Layer Interferometry (BLI) using Octet(trademark) R2 (manufactured by SARTORIUS), which was a biomolecular interaction analysis system. The basic principles of the Bio-Layer Interferometry are briefly explained below. When light of a specific wavelength is projected onto a layer of biomolecules fixed on the surface of a sensor chip, the light is reflected from both the surface of the biomolecular layer and the internal reference layer, resulting in an optical interference wave. When molecules in the measurement sample bind to the biomolecules on the surface of the sensor chip, the thickness of the layer at the tip of the sensor increases, causing a wavelength shift in the interference wave. By measuring this change in wavelength shift, it is possible to quantify and kinetically analyze in real time the number of molecules that bind to the biomolecules immobilized on the sensor chip surface. In this Example, the test sample and a non-specific reaction inhibitor were allowed to coexist in the measurement sample, and human IgG or human IgA was absorbed in the sample solution. The measurements were carried out according to the operating manual attached to the OctetR2.
(§3) As an antibody solution, an anti-human IgA polyclonal rabbit antibody (manufactured by Dako) was diluted with PBS(−) to 25 μg/mL to prepare an anti-human IgA antibody solution. As a sample solution, the test sample was human IgA adjusted to 250 μg/mL in PBS(−), and to 20 μL of this test sample, the IgA-binding peptide or the IgA-binding peptide modified with 20 kDa PEG was added to a final concentration of 25 μg/mL or 50 μg/mL, respectively, and the total volume was adjusted to 200 μL to prepare the R1.
Measurements using OctetR2 were performed in the same manner as for confirming the reaction inhibitory effect on human IgG.
For orientation: BLI is a label-free optical method that tracks binding on a fibre tip over time.

Data set [3] deals with human IgG. In words: Reaction inhibitory effect of IgG-binding nucleic acid aptamer on anti-human IgG antibody and human IgG, Bio-Layer Interferometry. The settings on record: 0.3 mg/mL; not added 7.9093. The method, then: For nucleic acid aptamers, the reaction inhibitory effect with or without PEG modification was confirmed using a model system to confirm the non-specific inhibitory effect in the same manner as in Example 2.
The test sample and measurements were performed under the same assay conditions as in Example 2. In this Example, the test sample and a non-specific reaction inhibitor were allowed to coexist in the measurement sample, and human IgG was absorbed in the sample solution. The measurements were carried out according to the operating manual attached to the OctetR2.
Anti-human IgG polyclonal rabbit antibody (manufactured by Dako) was diluted with PBS(−) to 25 μg/mL to prepare an anti-human IgG antibody solution. The sample solution used was human IgG at 1 mg/mL in PBS(−), with 20 μL of this test sample, and either the IgG-binding nucleic acid aptamer or the IgG-binding nucleic acid aptamer modified with 20 kDa PEG added to a final concentration of 0.3 mg/mL, and then prepared with reaction buffer (145 mmol/L NaCl, 5.4 mmol/L KCl, 0.8 mmol/L MgCl2, 1.8 mmol/L CaCl2, 20 mmol/L Tris (pH 7.6), 0.05% Tween 20) to make a total volume of 200 μL.

Data set [4] concerns non-specific reaction substance (IgG) of sample A, human plasma. Description: Non-specific reaction inhibitory effect, Bio-Layer Interferometry, sample A (human plasma) against anti-TAT antibody. The format is binding. The procedure: The measurement was carried out under the same assay conditions as described in Example 2. In this Example, sample A and a non-specific reaction inhibitor were allowed to coexist in the measurement sample, and the non-specific reaction substances were absorbed in the sample solution.
The antibody solution used was an anti-TAT antibody solution prepared by diluting the anti-TAT antibody used in the second reagent (hereinafter referred to as R2) of LPIA Genesis TAT, which was characterized by containing latex particles to which a monoclonal antibody with specific binding ability to TAT was immobilized, with PBS(−) to a concentration of 25 μg/mL. The sample solution was prepared by adding a final concentration of 25 μg/mL or 50 μg/mL of IgG-binding peptide or 20 kDa PEG-modified IgG-binding peptide as a non-specific reaction inhibitor to 20 μL of the test sample diluted 10-fold with PBS(−), and adjusting the total volume to 200 μL with R1.
Using the same assay conditions as those described in Example 3, the non-specific reaction inhibitory effects of the PEG-modified peptides described in Examples 2 and 3 and the prepared PEG-modified antibody fragment were compared. The amounts of non-specific reaction inhibitor added were 25 μg/mL, 50 μg/mL, 100 μg/mL, 200 μg/mL, or 400 μg/mL, and the test sample was the same as sample A in Example 3.
The assay was carried out under the same conditions as described in Example 3. As non-specific reaction inhibitors, sample solutions were prepared to which PEG-modified peptides chemically modified with 5 kDa, 10 kDa, 20 kDa, and 30 kDa PEG were added, and the non-specific reaction inhibitory effect of each was confirmed. The amounts of non-specific reaction inhibitors added were 5 μg/mL, 10 μg/mL, or 20 μg/mL, and the test sample was the same as Sample A in Examples 3 and 4.

For data set [5], the system named is human IgG. Description: Reaction inhibitory effect on human IgG, Bio-Layer Interferometry (Octet R2), anti-human IgG antibody and human IgG. As to conditions: for Response: human IgG, not added 6.6462. Format: binding. The procedure:
as §1, §2
as §3, with “IgG” for “IgA”, “1 mg/mL” for “250 μg/mL”, “IgG-binding” for “IgA-binding”, “first reagent (hereinafter referred to as R1) of LPIA Genesis TAT (manufactured by LSI Medience Corporation), which was a thrombin-antithrombin III complex (hereinafter referred to as TAT) measurement reagent.” for “R1.”
The sample solution and the anti-human IgG antibody solution were added to the designated wells of a 96-well black plate (manufactured by Greiner Bio-One) at 200 μL per well. To the baseline, dissociation and washing wells, 200 μL of PBS(−) was added. This plate and a biosensor (Biosensor/ProL: manufactured by SARTRIUS) were placed in the designated positions of the OctetR2. After operating the OctetR2 under the conditions shown in Table 1 below and acquiring data, the wavelength shift change (Response) was calculated using the analysis software included with the OctetR2. The measurements were carried out at a temperature of 30° C.

For data set [6], the system named is non-specific reaction substances of sample A, human plasma. In words: Non-specific inhibitory effect in latex agglutination method on automatic analyzer STACIA (LPIA Genesis TAT). The procedure: The non-specific inhibitory effect of the IgG-binding peptide and PEG-modified IgG-binding peptide used in Example 2 was confirmed by the latex agglutination method.
The measurements were performed using automated operation of an automatic analyzer, STACIA (manufactured by LSI Medience Corporation). In the STACIA measurement, two main operations were carried out. In the first operation, the sample to be measured was diluted with R1 and heated at 37° C. for 3.5 minutes. In the second operation, R2 was added to the reaction solution and the mixture was incubated at 37° C. for 6 minutes to induce latex agglutination. By optically monitoring the agglutination reaction, the amount of TAT or non-specific reaction substances in the samples to be measured was quantified. In this Example, the non-specific reaction inhibitor was added to R1 so that the concentration after sample addition was 0.05 mg/mL or 0.1 mg/mL, and non-specific reaction substances were absorbed during the first operation. […] The mixture ratio of the measurement sample, R1, and R2 was 20 μL:90 μL:90 μL. Latex agglutination was detected at a wavelength of 700 nm. The measured values were calculated by comparing the absorbance with a calibration curve obtained by measuring TAT of known concentrations. The test sample used was the same as sample A used in Examples 3 to 5.

The target in data set [7] is human IgA (human). Description: BLI (Octet R2) competition: human IgA on immobilised anti-human IgA antibody with 25 µg/mL of the peptide.
The target in data set [8] is human IgA (human). In words: BLI (Octet R2) competition: human IgA on immobilised anti-human IgA antibody with 50 µg/mL of the peptide.
Setting [9] is: amount added 25 μg/mL, not added 5.7733.
Where [10] appears, read: amount added 50 μg/mL, not added 5.7733.
[11] abbreviates: amount added 0.05 mg/mL, not added 32.01.
Setting [12] is: amount added 0.1 mg/mL, not added 27.17.

“GGAGGUGCUCCGAAAGGAACUCC [PEG-modified IgG-binding nucleic acid aptamer]”: the activity in data set [1] was found to be 4.96 nm.
With “IgA-binding peptide: human IgA-binding peptide of approximately 1.8 kDa, amino acid sequence HMVCLSYRGRPVCFSL (SEQ ID NO: 2), reported for purification of human IgA [reference compound]”, the figures for the Response in data set [2] (amount added 25 μg/mL) and in data set [2] (amount added 50 μg/mL) were 2.1805 nm and 2.2263 nm, respectively.
As for “IgG-binding nucleic acid aptamer: human IgG-binding nucleic acid aptamer of approximately 7.5 kDa, N(6)_ggAGGU(F)GcU(F)ccgaaaGGA(L)aC(F)U(F)cc (DNA GGAGGUGCUCCGAAAGGAACUCC; sugars from the 5' end ddrrrfrdfddddddrrldffdd, 5' {C6NH2}, backbone and methylation of C not given here; further chemistry not fully specified)”, the “Human IgG (Response)” value in data set [3] came to 7.6691 nm.
For “IgG-binding peptide: human IgG-binding peptide of approximately 1.5 kDa, amino acid sequence DCAWHLGELVWCT (SEQ ID NO: 1), known for purification of human IgG (human IgG binding peptide) [reference compound]”, the Response in data set [4] (setting [9]) stood at 6.5522 nm; in data set [4] (setting [10]), 6.6331 nm; in data set [5] (amount added 25 μg/mL) it was 7.4221 nm; in data set [5] (amount added 50 μg/mL) it was 7.6293 nm. The “Sample A measured value (TAT calibration curve)” value in data set [6] (setting [11]) came to 37.7 ng/mL; in data set [6] (setting [12]) it was 42.85 ng/mL.
With “PEG-modified IgA-binding peptide: IgA-binding peptide (SEQ ID NO: 2) with one molecule of 20 kDa PEG attached via the N-terminal amino group”, the values for the Response in data set [2] (amount added 25 μg/mL) and in data set [2] (amount added 50 μg/mL) were 1.6061 nm and 1.5374 nm, respectively. The “reaction inhibitory effect compared with the unmodified peptide” value in data set [2] (anti-human IgA antibody and human IgA) is “stronger reaction inhibitory effect”.
As for “PEG-modified IgG-binding peptide: IgG-binding peptide (SEQ ID NO: 1) with one molecule of 20 kDa PEG attached via the N-terminal amino group ({PEG 20 kDa}-DCAWHLGELVWCT; cysteine pairing not given here)”, the “effect in suppressing the non-specific reaction compared with the unmodified peptide” value in data set [4] is on record as “greater effect in suppressing the non-specific reaction than the unmodified peptide”. In data set [4] (added in equal amounts), the “effect on inhibiting non-specific reactions compared with PEG-modified antibody fragment” value is “greater effect on inhibiting non-specific reactions than the PEG-modified antibody fragment”. Also, the Response in data set [4] (amount added 5 μg/mL, not added 6.0114) amounted to 5.5469 nm; in data set [4] (amount added 10 μg/mL, not added 6.0114), 5.0054 nm; in data set [4] (amount added 20 μg/mL, not added 6.0114), 3.8339 nm; in data set [4] (setting [9]), 3.0487 nm; in data set [4] (setting [10]), 2.9829 nm; in data set [4] (amount added 100 μg/mL, not added 5.7733), 3.1926 nm. Further, the Response turned out to be 2.8092 nm in data set [4] (amount added 200 μg/mL, not added 6.0744); 3.0917 nm in data set [4] (amount added 400 μg/mL, not added 6.0744); 3.1484 nm in data set [5] (amount added 25 μg/mL); 2.6181 nm in data set [5] (amount added 50 μg/mL). For the same molecule, in data set [5] (anti-human IgG antibody and human IgG), the “reaction inhibitory effect compared with the unmodified peptide” value is given as “stronger reaction inhibitory effect”. Besides, the “Sample A measured value (TAT calibration curve)” value is 10.84 ng/mL in data set [6] (setting [11]) and 6.25 ng/mL in data set [6] (setting [12]).

B1: IgA-binding peptide modified with 20 kDa PEG (peptide)
peptide: HMVCLSYRGRPVCFSL
modifications: one molecule of 20 kDa PEG (succinimide-activated) attached via the amino group at the N-terminus
As for B1, the Response [nm] in data set [7] amounted to 1.61 nm; in data set [8] it was 1.54 nm.

B2: human IgA-binding peptide of approximately 1.8 kDa (peptide)
peptide: HMVCLSYRGRPVCFSL
As for B2, the Response [nm] came to 2.18 nm in data set [7] and 2.23 nm in data set [8].
